Drawing on US7112612B2, “N-alkylated GABA compounds, processes for their preparation and their use as medicaments” (UCB S.A., priority 2000, dated 2006), this text covers ED50 for 14 compounds.

The ED50 is the dose at which the effect has come halfway, by size or by number of responders.

The experiment deals with genetically sound-sensitive mice (audiogenic seizures). Put plainly: audiogenic seizures test in sound-susceptible mice. The class given is in vivo. The conditions noted are these: Mus musculus, ip, 1 h; dose producing 50% protection against clonic convulsions relative to control; intraperitoneally 60 minutes before induction of audiogenic seizures (90 dB, 10–20 kHz, 30 seconds); Probit Analysis; read-out: Clonic Convulsion (ED50). The text has this:
The potent activity of the compounds of formula (I) or (II), or their pharmaceutically acceptable salts, as anticonvulsants was evidenced by audiogenic seizures test induced in sound-susceptible mice. These examples illustrate the invention without in any way limiting its scope. The objective of the following pharmacological test is to evaluate the anticonvulsant potency of a compound in sound-susceptible mice, a genetic animal model with reflex seizures. In this model of primary generalised epilepsy, seizures are evoked without electrical or chemical stimulation and the seizure types are, at least in part, similar in their clinical phenomenology to seizures occurring in man (Löscher W. & Schmidt D., Epilepsy Res. (1998), 2, p. 145–181; Buchhalter J. R., Epilepsia (1993), 34, S31–S41). The results obtained with the tested compounds of formula (I) and (II) show a strong pharmacological effect (see Table 4).
In order to study the activity of the compounds of formula (I) and (II) including the (S) and (R) forms of ethyl 4-{[1-(aminocarbonyl)propyl]amino}butanoate, as anticonvulsant, the applicant performed out a series of experiments based on the audiogenic seizures test in mice.
The objective of the following pharmacological test is to evaluate the anticonvulsant potency of a compound in sound-susceptible mice, a genetic animal model with reflex seizures. In this model of primary generalised epilepsy, seizures are evoked without electrical or chemical stimulation and the seizure types are, at least in part, similar in their clinical phenomenology to seizures occurring in man (Löscher W. and Schmidt D., Epilepsy Res. (1998), 2, p. 145–181; Buchhalter J. R., Epilepsia (1993), 34, S31–S41).
Male or female genetically sound-sensitive mice (14–28 g; N=10), derived from a DBA (Dilute Brown Agouti) strain originally selected by Dr. Lehmann of the Laboratory of Acoustic Physiology (Paris) and bred in the UCB Pharma Sector husbandry unit since 1978, were used. The experimental design consisted of several groups, one group receiving the vehicle control and the other groups different doses of the test-compound. The compounds were administered intraperitoneally 60 minutes before the induction of audiogenic seizures.
For testing, the animals were placed in small cages, one mouse per cage, in a sound-attenuated chamber. After a period of orientation of 30 seconds, the acoustic stimulus (90 dB, 10–20 kHz) was delivered for 30 seconds via loud speakers positioned above each cage; During this interval, the mice were observed and the presence of the 3 phases of the seizure activity, namely wild running, clonic and tonic convulsions, was recorded. The proportion of mice protected against wild running, clonic and tonic convulsions, respectively, was calculated.
For active compounds, an ED50 value, i.e. the dose producing 50% protection relative to the control group, together with 95% confidence limits, was calculated using a Probit Analysis (SAS/STATR Software, Version 6.09, PROBIT procedure) of the proportions of protected mice for each of the 3 phases of the seizure activity.
Turning to `CC[C@H](NCCCC(=O)OCc1ccccc1)C(N)=O` [Compound N, benzyl 4-{[(1S)-1-(aminocarbonyl)propyl]amino)butanoate], the ED50 turned out to be 220 µmol/kg.
Next, `CCCC(CCC)COC(=O)CCCN[C@@H](CC)C(N)=O` [O, 2-propylpentyl 4-{[(1S)-1-(aminocarbonyl)propyl]amino}butanoate]: 120 µmol/kg; `CCC(NCCCC(=O)OC(C)(C)C)C(N)=O` [H, tertiobutyl 4-{[(1S)-1-(aminocarbonyl)propyl]amino}butanoate]: 520 µmol/kg; `CC[C@H](NCCCC(=O)OC(C)C)C(N)=O` [G, isopropyl 4-{[(1S)-1-(aminocarbonyl)propyl]amino}butanoate]: 150 µmol/kg.
`CCCOC(=O)CCCN[C@@H](CC)C(N)=O` [P, propyl 4-{[(1S)-1-(aminocarbonyl)propyl]amino}butanoate]: the ED50 was 200 µmol/kg.
Turning to `CC[C@H](NCCCC(=O)OC)C(N)=O` [F, methyl 4-{[(1S)-1-(aminocarbonyl)propyl]amino}butanoate], the ED50 amounted to 160 µmol/kg.
Next, `CCOC(=O)CCCN[C@@H](CC)C(N)=O` [D, ethyl 4-{[(1S)-1-(aminocarbonyl)propyl]amino}butanoate]: 68 µmol/kg; `CCCCOC(=O)CCCN[C@@H](CC)C(N)=O` [K, butyl 4-{[(1S)-1-(aminocarbonyl)propyl]amino}butanoate]: 1000 µmol/kg.
The value for `CC[C@H](NCCCC(=O)OCCC12CC3CC(CC(C3)C1)C2)C(N)=O` [I, 2-(1-adamantyl)ethyl 4-{[(1S)-1-(aminocarbonyl)propyl]amino}butanoate] was 130 µmol/kg.
For the compound `CC[C@H](NCCCC(=O)OCC(C)C)C(N)=O` [M, isobutyl 4-{[(1S)-1-(aminocarbonyl)propyl]amino}butanoate], the ED50 worked out at 360 µmol/kg.
As to `CCOC(=O)CCCNC(CC)C(N)=O` (racemic) [C, ethyl 4-{[1-(aminocarbonyl)propyl]amino}butanoate], the ED50 came to 320 µmol/kg.
In the case of `CC[C@H](NCCCC(=O)SC(C)C)C(N)=O` [W, S-isopropyl 4-{[(1S)-1-(aminocarbonyl)propyl]amino}butanethioate], the ED50 was found to be 540 µmol/kg.
The value for `CC[C@H](NCCCC(=O)OC1CCCC1)C(N)=O` [J, cyclopentyl 4-{[(1S)-1-(aminocarbonyl)propyl]amino}butanoate] was 340 µmol/kg; that for `CCCCCCCCOC(=O)CCCN[C@@H](CC)C(N)=O` [L, octyl 4-{[(1S)-1-(aminocarbonyl)propyl]amino}butanoate] was 160 µmol/kg.
